Laboratory results: patent publication EP0520336A2, “Aldehyde derivatives and their use as calpain inhibitors” (FUJIREBIO Inc., priority 1991, dated 1992)

Target: a-chymotrypsin (Bos taurus, UniProt P00766)
Test: Measurement of inhibitory effect on a-chymotrypsin (glutaryl-L-phenylalanine-p-nitroanilide substrate)
Assay type: biochemical
Conditions: a-chymotrypsin activity, 25 ° C, pH = 7.8
Description: Test Example 3 Measurement of Inhibitory Effect on Protease other than Calpain
(2) Measurement of Inhibitory Effect on a-Chymotrypsin
The inhibitory effect on a-chymotrypsin was measured by a partially modified method of Erlanger, B. F. as described in Ach. Biochem. Biophys. 115, 206-210 (1966). […]
The mixture was preincubated at 25 ° C for 3 minutes. […] The increase of 405 nm absorbance was measured at 25 ° C with time, and the transition rate (a) of the absorbance per min was calculated.
The rate (b) of the absorbance of a blank sample treated similarly without any compound dissolved in combined dimethyl sulfoxide and 10% polyoxyethylene 60 hardened castor oil was measured. The inhibition of a-chymotrypsin activity was calculated in accordance with the formula [(b-a)/b] X 100, and the amount of each compound necessary to inhibit a-chymotrypsin activity by 50% [ICso] was calculated according to the method of Probit.
The inhibitory effect of SUAM-14541, a compound disclosed in Japanese Laid-Open Patent Application 1-121257, on a-chymotrypsin activity was measured for comparison.

For `CC(C)C[C@H](NC(=O)OCc1ccccc1)C(=O)N[C@H](C=O)COCc1ccsc1` [Compound No. 3-6, L-N-benzyloxycarbonylleucine-(2S)-[1-formyl-2-(thiophene-3-ylmethyl)oxy]ethylamide], which IC50 is on record?
The IC50 was > 100 µM.
